Structures are written as SMILES.

As a reminder, the Ki is the equilibrium dissociation constant of an inhibitor or competing ligand from its target. Lower therefore signals a stronger hold on the target.

The test addresses T1, hCA IX (Homo sapiens, UniProt Q16790).
T1 construct: gene CA9
In words: stopped-flow CO2 hydration. The format is biochemical. From the text:
stopped-flow CO2 hydration on hCA IX
`CCN(CC)CC(=O)N(CCc1ccc(S(N)(=O)=O)cc1)Cc1ccccc1` [compound 18, 18] gave a Ki of 30.6 nM.

Compound `CCN(CC(=O)N(CCc1ccc(S(N)(=O)=O)cc1)Cc1ccccc1)Cc1ccccc1` [compound 19, 19] registered a Ki of 119 nM.

As for `NS(=O)(=O)c1ccc(CCN(Cc2ccccc2)C(=O)CN(Cc2ccccc2)Cc2ccccc2)cc1` [compound 20, 20], the Ki came to 234 nM.

`CCCCCN(CCCCC)CC(=O)N(CCc1ccc(S(N)(=O)=O)cc1)Cc1ccccc1` [compound 21, 21]: the inhibition constant Ki was found to be 48.5 nM.

`CCCCCCN(CCCCCC)CC(=O)N(CCc1ccc(S(N)(=O)=O)cc1)Cc1ccccc1` [compound 22, 22] had a Ki of 123 nM.

The compound `CCCCCCCCN(CCCCCCCC)CC(=O)N(CCc1ccc(S(N)(=O)=O)cc1)Cc1ccccc1` [compound 23, 23] gave an inhibitory constant (Ki) of 271 nM.

For `CCN(CC)CCC(=O)N(CCc1ccc(S(N)(=O)=O)cc1)Cc1ccccc1` [compound 24, 24], the affinity, expressed as Ki, was 31.1 nM.

On to `CCN(CCC(=O)N(CCc1ccc(S(N)(=O)=O)cc1)Cc1ccccc1)Cc1ccccc1` [compound 25, 25], for which affinity was put at a Ki of 166 nM.

On to `NS(=O)(=O)c1ccc(CCN(Cc2ccccc2)C(=O)CCN(Cc2ccccc2)Cc2ccccc2)cc1` [compound 26, 26], for which the Ki was 106 nM.

As to `CCCCCN(CCCCC)CCC(=O)N(CCc1ccc(S(N)(=O)=O)cc1)Cc1ccccc1` [compound 27, 27], the inhibition constant (Ki) came to 134 nM. This Ki and that of the compound before are within 1.5-fold of each other.

The compound `CCCCCCN(CCCCCC)CCC(=O)N(CCc1ccc(S(N)(=O)=O)cc1)Cc1ccccc1` [compound 28, 28] came in with a Ki of 94.2 nM.

With `CCCCCCCCN(CCCCCCCC)CCC(=O)N(CCc1ccc(S(N)(=O)=O)cc1)Cc1ccccc1` [compound 29, 29], the Ki was determined as 147 nM.

Turning to `CCCCCCN(CCCCCC)CCC(=O)N(CCc1ccccc1)CCc1ccc(S(N)(=O)=O)cc1` [compound 30, 30], the affinity corresponds to a Ki of 42.9 nM.

The compound `CCCCCCN(CCCCCC)CC(=O)N(CCc1ccc(S(N)(=O)=O)cc1)Cc1ccc2ccccc2c1` [compound 32, 32] returned a Ki of 296 nM.

`CCCCCCN(CCCCCC)CC(=O)N(CCC#N)CCc1ccc(S(N)(=O)=O)cc1` [compound 33, 33] yielded an inhibition constant (Ki) of 154 nM.

Compound `N#CCCN(CCc1ccccc1)CC(=O)N(CCc1ccccc1)CCc1ccc(S(N)(=O)=O)cc1` [compound 34, 34] yielded a Ki of 32.3 nM. This Ki is about 4.8-fold lower than that of the compound before.

The compound `N#CCCN(CCc1ccccc1)CC(=O)N(CCc1ccc(S(N)(=O)=O)cc1)Cc1ccco1` [compound 35, 35] displayed an inhibitory constant (Ki) of 95.1 nM.

The compound `N#CCCN(CCc1ccccc1)CC(=O)N(CCc1ccc(S(N)(=O)=O)cc1)Cc1ccc(F)cc1` [compound 36, 36] returned a Ki of 3 nM.

Compound `N#CCCN(CCc1ccccc1)CC(=O)N(CCc1ccc(S(N)(=O)=O)cc1)Cc1ccc2ccccc2c1` [compound 37, 37] displayed a Ki of 151 nM.

Regarding `N#CCCN(CCc1ccccc1)CC(=O)N(CCc1ccc(S(N)(=O)=O)cc1)Cc1ccc([N+](=O)[O-])cc1` [compound 38, 38], the inhibition constant Ki worked out at 202 nM. The Ki values of the last two compounds are within 1.5-fold of each other.

With `N#CCCN(CCc1ccccc1)CC(=O)N(CCC#N)CCc1ccc(S(N)(=O)=O)cc1` [compound 39, 39], the Ki was determined as 19.3 nM.

Consider `NCCCN(CCc1ccccc1)CC(=O)N(CCc1ccccc1)CCc1ccc(S(N)(=O)=O)cc1` [compound 40, 40], for which affinity was put at a Ki of 4 nM.

The compound `NCCCN(CCc1ccccc1)CC(=O)N(CCc1ccc(S(N)(=O)=O)cc1)Cc1ccco1` [compound 41, 41] showed a Ki of 11.1 nM. This Ki lies about 2.8-fold higher than the previous one.

Take `NCCCN(CCc1ccccc1)CC(=O)N(CCc1ccc(S(N)(=O)=O)cc1)Cc1ccc(F)cc1` [compound 42, 42]: the Ki worked out at 4.8 nM.

`NCCCN(CCc1ccccc1)CC(=O)N(CCc1ccc(S(N)(=O)=O)cc1)Cc1ccc2ccccc2c1` [compound 43, 43] returned a Ki of 34.3 nM.

In turn, `CCCCCCN(CCCCCC)CC(=O)N(CCCN)CCc1ccc(S(N)(=O)=O)cc1` [compound 44, 44] displayed a Ki of 116 nM.

`NS(=O)(=O)c1ccc(CCN(CCc2ccccc2)C(=O)CN(CCC(=O)O)CCc2ccccc2)cc1` [compound 45, 45] displayed a Ki of 7.5 nM.

Take `NS(=O)(=O)c1ccc(CCN(Cc2ccco2)C(=O)CN(CCC(=O)O)CCc2ccccc2)cc1` [compound 46, 46]: the inhibition constant (Ki) was 1.2 nM. This Ki is about 6.2-fold lower than that of the compound before.

In the case of `NS(=O)(=O)c1ccc(CCN(Cc2ccc(F)cc2)C(=O)CN(CCC(=O)O)CCc2ccccc2)cc1` [compound 47, 47], the inhibition constant Ki was 11.1 nM.

The compound `NS(=O)(=O)c1ccc(CCN(Cc2ccc3ccccc3c2)C(=O)CN(CCC(=O)O)CCc2ccccc2)cc1` [compound 48, 48] gave a Ki of 22.1 nM.

Regarding `CCCCCCN(CCCCCC)CC(=O)N(CCC(=O)O)CCc1ccc(S(N)(=O)=O)cc1` [compound 49, 49], the inhibition constant Ki came out at 68.3 nM.

With `CCCCCCCC/C=C\CCCCCCCCNC(=O)CCN(CCc1ccccc1)CC(=O)N(CCc1ccc(S(N)(=O)=O)cc1)Cc1ccco1` [compound 50, 50], affinity was put at a Ki of 61.1 nM. This Ki and that of the compound before are within 1.5-fold of each other.

The values are drawn from paper PMC8942523, “The three-tails approach as a new strategy to improve selectivity of action of sulphonamide inhibitors against tumour-associated carbonic anhydrase IX and XII” (Journal of Enzyme Inhibition and Medicinal Chemistry, 2022).
